{"source": "ChEMBL document CHEMBL1146078", "about": "“Discovery and preclinical studies of (R)-1-(4-(4-fluoro-2-methyl-1H-indol-5-yloxy)-5- methylpyrrolo[2,1-f][1,2,4]triazin-6-yloxy)propan- 2-ol (BMS-540215), an in vivo active potent VEGFR-2 inhibitor” (J Med Chem, 2006)", "key": {"[1]": {"test": "AUC in mice at 50 mg/kg after 4 hrs", "format": "ADME, organism-based", "design": "time < 4 hr, dose 50 mg/kg", "conditions": "mouse, plasma"}, "[2]": {"test": "Cmax in mice at 50 mg/kg after 4 hrs", "format": "ADME, organism-based", "design": "dose 50 mg/kg", "conditions": "mouse, in vivo"}, "Cytochrome P450 3A4": {"molecular_target": "Cytochrome P450 3A4 (Homo sapiens, UniProt P08684)", "sequence (P08684 whole entry)": "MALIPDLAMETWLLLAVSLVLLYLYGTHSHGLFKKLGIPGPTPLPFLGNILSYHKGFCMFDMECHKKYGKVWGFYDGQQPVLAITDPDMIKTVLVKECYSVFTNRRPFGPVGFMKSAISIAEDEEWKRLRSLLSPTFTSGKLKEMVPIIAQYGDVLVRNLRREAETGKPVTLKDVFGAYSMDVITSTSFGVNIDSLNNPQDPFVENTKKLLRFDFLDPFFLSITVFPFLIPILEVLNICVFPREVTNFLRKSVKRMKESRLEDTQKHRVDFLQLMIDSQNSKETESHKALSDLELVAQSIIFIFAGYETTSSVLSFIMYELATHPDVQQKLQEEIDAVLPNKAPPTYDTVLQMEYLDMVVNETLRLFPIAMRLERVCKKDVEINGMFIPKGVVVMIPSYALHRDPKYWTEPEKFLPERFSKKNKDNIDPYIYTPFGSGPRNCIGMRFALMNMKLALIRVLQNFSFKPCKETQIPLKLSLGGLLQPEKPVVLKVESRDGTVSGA", "test": "Inhibitory activity against CYP3A4"}, "hERG": {"molecular_target": "hERG (Homo sapiens, UniProt Q12809)", "sequence (Q12809 whole entry)": "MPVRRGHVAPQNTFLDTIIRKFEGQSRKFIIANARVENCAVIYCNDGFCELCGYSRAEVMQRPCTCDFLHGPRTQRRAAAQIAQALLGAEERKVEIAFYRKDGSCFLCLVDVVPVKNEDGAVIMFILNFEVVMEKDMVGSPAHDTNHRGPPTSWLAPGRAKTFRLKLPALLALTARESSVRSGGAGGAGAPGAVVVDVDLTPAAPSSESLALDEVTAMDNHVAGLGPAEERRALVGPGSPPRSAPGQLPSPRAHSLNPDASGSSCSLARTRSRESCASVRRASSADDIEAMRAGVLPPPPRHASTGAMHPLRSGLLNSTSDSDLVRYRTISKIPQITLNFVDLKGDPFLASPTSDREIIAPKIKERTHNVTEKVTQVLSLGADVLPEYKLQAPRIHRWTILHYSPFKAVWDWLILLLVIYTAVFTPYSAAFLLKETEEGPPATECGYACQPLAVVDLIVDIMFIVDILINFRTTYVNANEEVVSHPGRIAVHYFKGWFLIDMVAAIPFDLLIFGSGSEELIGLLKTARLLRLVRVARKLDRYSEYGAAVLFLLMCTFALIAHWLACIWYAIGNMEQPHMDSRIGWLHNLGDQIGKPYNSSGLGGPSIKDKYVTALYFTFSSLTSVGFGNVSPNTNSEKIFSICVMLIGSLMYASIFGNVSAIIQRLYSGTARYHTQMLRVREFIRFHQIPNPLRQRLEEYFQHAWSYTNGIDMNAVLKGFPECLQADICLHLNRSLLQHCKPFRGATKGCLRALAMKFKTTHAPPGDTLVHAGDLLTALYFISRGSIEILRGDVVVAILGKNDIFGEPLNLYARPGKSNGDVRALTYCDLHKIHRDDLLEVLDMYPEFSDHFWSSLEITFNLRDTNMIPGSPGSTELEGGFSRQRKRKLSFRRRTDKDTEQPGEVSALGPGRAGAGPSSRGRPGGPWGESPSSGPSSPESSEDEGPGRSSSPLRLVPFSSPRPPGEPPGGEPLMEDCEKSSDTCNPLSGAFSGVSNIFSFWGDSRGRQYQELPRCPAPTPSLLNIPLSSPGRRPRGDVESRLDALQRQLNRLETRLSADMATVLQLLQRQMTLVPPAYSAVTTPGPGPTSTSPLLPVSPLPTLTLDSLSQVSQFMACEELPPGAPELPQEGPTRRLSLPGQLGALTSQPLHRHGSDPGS", "test": "Inhibitory activity against hERG by patch-clamp assay at 1 uM", "format": "functional"}, "[3]": {"molecular_target": "Voltage-gated inwardly rectifying potassium channel KCNH2 (Homo sapiens, UniProt Q12809)", "sequence (Q12809 whole entry)": "as above", "test": "Inhibitory activity against hERG by patch-clamp assay", "format": "functional"}, "[4]": {"molecular_target": "Vascular endothelial growth factor receptor 2 (Mus musculus, UniProt P35918)", "sequence (P35918 whole entry)": "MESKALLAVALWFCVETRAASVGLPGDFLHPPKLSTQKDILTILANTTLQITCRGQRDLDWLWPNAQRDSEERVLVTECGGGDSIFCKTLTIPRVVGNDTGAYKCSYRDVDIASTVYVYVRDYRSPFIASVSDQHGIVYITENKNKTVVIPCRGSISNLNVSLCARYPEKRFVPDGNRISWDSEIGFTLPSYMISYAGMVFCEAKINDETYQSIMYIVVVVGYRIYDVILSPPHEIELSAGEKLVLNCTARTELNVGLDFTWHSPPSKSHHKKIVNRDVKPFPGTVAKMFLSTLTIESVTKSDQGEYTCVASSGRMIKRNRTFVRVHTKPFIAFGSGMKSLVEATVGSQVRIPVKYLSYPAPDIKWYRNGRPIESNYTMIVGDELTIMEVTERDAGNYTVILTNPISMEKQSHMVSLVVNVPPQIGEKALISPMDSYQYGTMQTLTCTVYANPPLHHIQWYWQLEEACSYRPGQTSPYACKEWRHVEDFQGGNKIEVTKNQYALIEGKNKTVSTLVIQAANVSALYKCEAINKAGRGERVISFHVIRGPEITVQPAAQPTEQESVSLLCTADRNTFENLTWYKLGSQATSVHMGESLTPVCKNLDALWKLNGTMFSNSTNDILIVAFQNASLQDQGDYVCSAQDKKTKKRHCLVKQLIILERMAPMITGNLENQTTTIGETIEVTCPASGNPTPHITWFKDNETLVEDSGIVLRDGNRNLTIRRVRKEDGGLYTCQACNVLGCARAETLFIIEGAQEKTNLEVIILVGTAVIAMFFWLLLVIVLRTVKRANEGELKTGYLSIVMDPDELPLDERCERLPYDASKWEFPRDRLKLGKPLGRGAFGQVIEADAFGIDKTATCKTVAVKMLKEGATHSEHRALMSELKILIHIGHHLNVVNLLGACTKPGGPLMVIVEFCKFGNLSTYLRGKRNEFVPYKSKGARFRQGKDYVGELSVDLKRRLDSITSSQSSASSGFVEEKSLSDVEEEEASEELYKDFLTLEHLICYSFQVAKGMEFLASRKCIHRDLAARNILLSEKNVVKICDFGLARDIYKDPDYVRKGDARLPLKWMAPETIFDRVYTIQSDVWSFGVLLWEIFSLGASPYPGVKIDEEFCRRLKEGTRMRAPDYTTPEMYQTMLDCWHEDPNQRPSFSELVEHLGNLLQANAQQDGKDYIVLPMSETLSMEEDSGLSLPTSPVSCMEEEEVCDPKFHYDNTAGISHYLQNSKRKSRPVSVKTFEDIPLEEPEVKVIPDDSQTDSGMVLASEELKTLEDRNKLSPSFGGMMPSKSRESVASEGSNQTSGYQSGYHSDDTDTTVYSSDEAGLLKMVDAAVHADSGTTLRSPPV", "test": "Inhibitory activity against Flk1"}, "H3396 [5]": {"system": "H3396", "test": "Antitumor activity against H3396 cell xenografted in athymic mice at 60 mg/kg", "format": "functional, Homo sapiens"}, "[6]": {"test": "AUC in BALB/c mouse at 10 mg/kg, iv after 24 hrs", "format": "ADME, organism-based", "design": "time < 24 hr, dose 10 mg/kg, route intravenous", "conditions": "plasma"}, "[7]": {"test": "Half life in BALB/c mouse at 10 mg/kg, iv after 24 hrs", "format": "ADME, organism-based", "design": "dose 10 mg/kg, route intravenous", "conditions": "in vivo"}, "[8]": {"test": "Mean residence time in BALB/c mouse at 10 mg/kg, iv after 24 hrs", "format": "ADME, organism-based", "design": "dose 10 mg/kg, route intravenous", "conditions": "in vivo"}, "[9]": {"test": "Systemic clearance in BALB/c mouse at 10 mg/kg, iv after 24 hrs", "format": "ADME, organism-based", "design": "dose 10 mg/kg, route intravenous", "conditions": "in vivo"}, "[10]": {"test": "Volume of distribution in BALB/c mouse at 10 mg/kg, iv after 24 hrs", "format": "ADME, organism-based", "design": "dose 10 mg/kg, route intravenous", "conditions": "in vivo, read-out: Vss"}, "[11]": {"test": "AUC in BALB/c mouse at 60 mg/kg, po after 24 hrs", "format": "ADME, organism-based", "design": "time < 24 hr, dose 60 mg/kg, route oral", "conditions": "plasma"}, "[12]": {"test": "Half life in BALB/c mouse at 60 mg/kg, po after 24 hrs", "format": "ADME, organism-based", "design": "dose 60 mg/kg, route oral", "conditions": "in vivo"}, "[13]": {"test": "Oral bioavailability in BALB/c mouse at 60 mg/kg, po after 24 hrs", "format": "ADME, organism-based", "conditions": "in vivo"}, "H3396 [14]": {"system": "H3396", "test": "Antitumor activity against H3396 cell xenografted in athymic mice at 90 mg/kg", "format": "functional, Homo sapiens"}, "[15]": {"test": "Cmax in rat at 25 mg/kg as solution after 24 hrs", "format": "ADME, organism-based", "design": "dose 25 mg/kg", "conditions": "in vivo"}, "[16]": {"test": "Cmax in rat at 25 mg/kg as micronized suspension after 24 hrs", "format": "ADME, organism-based", "design": "dose 25 mg/kg", "conditions": "in vivo"}, "[17]": {"test": "Cmax in rat at 100 mg/kg as micronized suspension after 24 hrs", "format": "ADME, organism-based", "design": "dose 100 mg/kg", "conditions": "in vivo"}, "[18]": {"test": "Cmax in rat at 200 mg/kg as micronized suspension after 24 hrs", "format": "ADME, organism-based", "design": "dose 200 mg/kg", "conditions": "in vivo"}, "[19]": {"test": "AUC in rat at 25 mg/kg as solution after 24 hrs", "format": "ADME, organism-based", "design": "time < 24 hr, dose 25 mg/kg", "conditions": "plasma"}, "[20]": {"test": "AUC in rat at 25 mg/kg as micronized suspension after 24 hrs", "format": "ADME, organism-based", "design": "time < 24 hr, dose 25 mg/kg", "conditions": "plasma"}, "[21]": {"test": "AUC in rat at 100 mg/kg as micronized suspension after 24 hrs", "format": "ADME, organism-based", "design": "time < 24 hr, dose 100 mg/kg", "conditions": "plasma"}, "[22]": {"test": "AUC in rat at 200 mg/kg as micronized suspension after 24 hrs", "format": "ADME, organism-based", "design": "time < 24 hr, dose 200 mg/kg", "conditions": "plasma"}, "[23]": {"test": "Tmax in male BALB/c mice", "format": "ADME, organism-based", "conditions": "mouse, in vivo"}}, "data": [{"smiles": "Cc1cc2c(F)c(Oc3ncnn4cc(OCCCN5CCCCC5)c(C)c34)ccc2[nH]1", "values": [{"measurement": "AUC at 4 h", "setting": "[1]", "value": 14, "unit": "µM·h"}, {"measurement": "Cmax", "setting": "[2]", "value": 4.2, "unit": "µM"}, {"measurement": "IC50", "setting": "Cytochrome P450 3A4", "value": 1000, "unit": "nM"}, {"measurement": "inhibition at 1 µM", "setting": "hERG", "value": 70, "unit": "%"}]}, {"smiles": "COC[C@@H](O)COc1cn2ncnc(Oc3ccc4[nH]c(C)cc4c3F)c2c1C", "values": [{"measurement": "AUC at 4 h", "setting": "[1]", "value": 128, "unit": "µM·h"}, {"measurement": "Cmax", "setting": "[2]", "value": 41, "unit": "µM"}, {"measurement": "IC50", "setting": "Cytochrome P450 3A4", "value": 1000, "unit": "nM"}, {"measurement": "IC50", "setting": "[3]", "value": 18, "unit": "µM"}]}, {"smiles": "Cc1cc2c(F)c(Oc3ncnn4cc(OCCC5CCN(C)CC5)c(C)c34)ccc2[nH]1", "values": [{"measurement": "AUC at 4 h", "setting": "[1]", "value": 2.2, "unit": "µM·h"}, {"measurement": "Cmax", "setting": "[2]", "value": 0.7, "unit": "µM"}, {"measurement": "IC50", "setting": "Cytochrome P450 3A4", "value": 700, "unit": "nM"}]}, {"smiles": "Cc1cc2c(F)c(Oc3ncnn4cc(OCCCN5CCCC5)c(C)c34)ccc2[nH]1", "values": [{"measurement": "AUC at 4 h", "setting": "[1]", "value": 20.5, "unit": "µM·h"}, {"measurement": "Cmax", "setting": "[2]", "value": 5.9, "unit": "µM"}, {"measurement": "inhibition at 1 µM", "setting": "hERG", "value": 66, "unit": "%"}]}, {"smiles": "Cc1cc2c(F)c(Oc3ncnn4cc(OCCCNS(C)(=O)=O)c(C)c34)ccc2[nH]1", "values": [{"measurement": "AUC at 4 h", "setting": "[1]", "value": 96, "unit": "µM·h"}, {"measurement": "Cmax", "setting": "[2]", "value": 27, "unit": "µM"}, {"measurement": "IC50", "setting": "Cytochrome P450 3A4", "value": 1000, "unit": "nM"}]}, {"smiles": "Cc1cc2c(F)c(Oc3ncnn4cc(O)c(C)c34)ccc2[nH]1", "values": [{"measurement": "AUC at 4 h", "setting": "[1]", "value": 0.2, "unit": "µM·h"}, {"measurement": "Cmax", "setting": "[2]", "value": 0.2, "unit": "µM"}]}, {"smiles": "Cc1cc2c(F)c(Oc3ncnn4cc(OCCCS(C)(=O)=O)c(C)c34)ccc2[nH]1", "values": [{"measurement": "AUC at 4 h", "setting": "[1]", "value": 185, "unit": "µM·h"}, {"measurement": "Cmax", "setting": "[2]", "value": 57, "unit": "µM"}, {"measurement": "IC50", "setting": "Cytochrome P450 3A4", "value": 17000, "unit": "nM"}, {"measurement": "IC50", "setting": "[3]", "value": 20, "unit": "µM"}]}, {"smiles": "Cc1cc2c(F)c(Oc3ncnn4cc(OC[C@H](C)O)c(C)c34)ccc2[nH]1", "values": [{"measurement": "AUC at 4 h", "setting": "[1]", "value": 146, "unit": "µM·h"}, {"measurement": "Cmax", "setting": "[2]", "value": 56, "unit": "µM"}]}, {"smiles": "Cc1cc2c(F)c(Oc3ncnn4cc(OCCN5CCC(O)C5)c(C)c34)ccc2[nH]1", "note": "(single isomer, unassigned)", "values": [{"measurement": "AUC at 4 h", "setting": "[1]", "value": 9.9, "unit": "µM·h"}, {"measurement": "Cmax", "setting": "[2]", "value": 3, "unit": "µM"}, {"measurement": "inhibition at 1 µM", "setting": "hERG", "value": 38, "unit": "%"}]}, {"smiles": "Cc1cc2c(F)c(Oc3ncnn4cc(OC[C@@H](C)O)c(C)c34)ccc2[nH]1", "note": "[BRIVANIB]", "values": [{"measurement": "AUC at 4 h", "setting": "[1]", "value": 136, "unit": "µM·h"}, {"measurement": "Cmax", "setting": "[2]", "value": 41, "unit": "µM"}, {"measurement": "IC50", "setting": "[3]", "value": 18, "unit": "µM"}, {"measurement": "IC50", "setting": "[4]", "value": 89, "unit": "nM"}, {"measurement": "Ki", "setting": "[4]", "value": 28, "unit": "nM"}, {"measurement": "Activity", "setting": "H3396 [5]", "value": 85, "unit": "%"}, {"measurement": "AUC at 24 h", "setting": "[6]", "value": 49, "unit": "µM·h"}, {"measurement": "half-life", "setting": "[7]", "value": 162, "unit": "min"}, {"measurement": "MRT", "setting": "[8]", "value": 3.6, "unit": "h"}, {"measurement": "clearance", "setting": "[9]", "value": 9.3, "unit": "mL/min/kg"}, {"measurement": "Vd", "setting": "[10]", "value": 2, "unit": "L/kg"}, {"measurement": "AUC at 24 h", "setting": "[11]", "value": 224, "unit": "µM·h"}, {"measurement": "half-life", "setting": "[12]", "value": 216, "unit": "min"}, {"measurement": "bioavailability", "setting": "[13]", "value": 88, "unit": "%"}, {"measurement": "Activity", "setting": "H3396 [14]", "value": 97, "unit": "%"}, {"measurement": "Cmax", "setting": "[15]", "value": 6.4, "unit": "µM"}, {"measurement": "Cmax", "setting": "[16]", "value": 550, "unit": "nM"}, {"measurement": "Cmax", "setting": "[17]", "value": 2050, "unit": "nM"}, {"measurement": "Cmax", "setting": "[18]", "value": 1710, "unit": "nM"}, {"measurement": "AUC at 24 h", "setting": "[19]", "value": 13.4, "unit": "µM·h"}, {"measurement": "AUC at 24 h", "setting": "[20]", "value": 3.35, "unit": "µM·h"}, {"measurement": "AUC at 24 h", "setting": "[21]", "value": 8.43, "unit": "µM·h"}, {"measurement": "AUC at 24 h", "setting": "[22]", "value": 7.61, "unit": "µM·h"}, {"measurement": "Tmax", "setting": "[23]", "value": 1, "unit": "h"}]}]}
